Test results: patent US20250011285A1, “CYP11A1 INHIBITORS” (ORION CORPORATION, priority 2021, published 2025)

target: T1, CYP11A1 (Homo sapiens, UniProt P05108); assay: CYP11A1 inhibition, isocaproic acid release assay (IARA) in H295R cells; format: cell-based; conditions: human H295R adrenocortical carcinoma cells treated three days, 3 nM [24,25-3H]-labelled cholesterol, 1% DMSO; read-out: IC50 on CYP11A1 inhibition (Group)
T1 construct: human H295R adrenocortical carcinoma cell line was used as source of enzyme; endogenous in cells; host or cells: H295R human adrenocortical carcinoma cells
T1 sequence (P05108 40-521): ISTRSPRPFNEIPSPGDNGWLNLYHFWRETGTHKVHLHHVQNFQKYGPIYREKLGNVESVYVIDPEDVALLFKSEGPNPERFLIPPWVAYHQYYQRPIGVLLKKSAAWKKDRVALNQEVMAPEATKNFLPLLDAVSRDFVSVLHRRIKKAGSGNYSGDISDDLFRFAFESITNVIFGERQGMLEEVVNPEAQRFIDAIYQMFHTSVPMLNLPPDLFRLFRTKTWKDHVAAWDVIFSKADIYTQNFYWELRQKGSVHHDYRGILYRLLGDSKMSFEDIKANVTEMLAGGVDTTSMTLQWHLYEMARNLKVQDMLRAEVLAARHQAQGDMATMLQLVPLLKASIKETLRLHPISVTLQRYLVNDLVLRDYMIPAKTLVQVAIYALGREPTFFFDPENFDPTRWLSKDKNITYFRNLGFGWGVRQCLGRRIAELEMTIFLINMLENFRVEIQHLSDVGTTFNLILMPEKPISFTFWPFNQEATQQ
Protocol: The ability of the test compounds to inhibit conversion of cholesterol to pregnenolone and isocaproic acid was measured by modification of isocaproic acid release assay (IARA) described by Ruangwises et al. (Biology of Reproduction 1991; 45(1):143-50) except that human H295R adrenocortical carcinoma cell line was used as source of enzyme and extraction was done with dextran-coated charcoal suspension (Isomaa, V. et al., Endocrinology 1982; 111(3):833-843). […] To determine the half maximal inhibitory concentration (IC50) of the test compounds on CYP11A1 inhibition, the cells were treated for three days with increasing concentrations of the test compounds in the presence of 3 nM [24,25-3H]-labelled cholesterol (American Radiolabelled Chemicals).
The final DMSO concentration was 1%. Cell culture medium was extracted with dextran-coated charcoal suspension and the radiolabelled isocaproic acid was determined by mixing 100 μl of supernatant fraction in 200 μl of scintillation fluid (OptiPhase SuperMix, Perkin Elmer). Radioactivity was measured using a Microbeta scintillation counter (1450 MicroBeta Trilux, Wallac). All the test compounds were studied at 10 concentrations in duplicates.

**Q.** How did the IC50 turn out when `COc1cc(OCc2ccc(C(=O)N(C)C)cc2)ccc1CN1Cc2ccccc2C1` [Compound 31, 4-((4-(Isoindolin-2-ylmethyl)-3-methoxyphenoxy)methyl)-N,N-dimethyl-benzamide] was run?
**A.** Its IC50 is 351 to 1500 nM.

**Q.** With `CS(=O)(=O)c1ccc(COc2ccc(CN3Cc4ccccc4C3)cc2C(N)=O)cc1` [Compound 54, 5-(Isoindolin-2-ylmethyl)-2-((4-(methylsulfonyl)benzyl)oxy)benzamide] as the molecule, how does the IC50 read?
**A.** The IC50 was less than 150 nM.

**Q.** `COCCNS(=O)(=O)c1ccc(COc2ccc(CN3Cc4ccccc4C3)cc2OC)cc1` [Compound 13, 4-((4-(Isoindolin-2-ylmethyl)-2-methoxyphenoxy)methyl)-N-(2-methoxyethyl)-benzenesulfonamide] was tested. Which IC50 did it give?
**A.** The IC50 was less than 150 nM.

**Q.** With `CS(=O)(=O)N1CCC(COc2ccc(CN3Cc4ccccc4C3)cc2C#N)CC1` [Compound 19, 5-(Isoindolin-2-ylmethyl)-2-((1-(methylsulfonyl)piperidin-4-yl)methoxy)-benzonitrile] as the molecule, how does the IC50 read?
**A.** The IC50 was less than 150 nM.

**Q.** `C=CCc1cc(CN2Cc3ccccc3C2)ccc1OCc1ccc(C(=O)N(C)C)cc1` [Compound 15, 4-((2-Allyl-4-(isoindolin-2-ylmethyl)phenoxy)methyl)-N,N-dimethylbenzamide] was tested. Which IC50 did it give?
**A.** The IC50 was 151 to 350 nM.

**Q.** `COCCS(=O)(=O)c1ccc(COc2ccc(CN3Cc4ccccc4C3)cc2COC)cc1` [Compound 20, 2-(4-((4-((2-Methoxyethyl)sulfonyl)benzyl)oxy)-3-(methoxymethyl)benzyl)-isoindoline] was tested. Which IC50 did it give?
**A.** Its IC50 is less than 150 nM.

**Q.** How did the IC50 turn out when `COc1c(OCc2ccc(S(C)(=O)=O)cc2)ccc(CN2Cc3ccccc3C2)c1F` [Compound 21, 2-(2-Fluoro-3-methoxy-4-((4-(methylsulfonyl)benzyl)oxy)benzyl)isoindoline] was run?
**A.** Its IC50 is less than 150 nM.

**Q.** For `CN(C)C(=O)c1ccc(COc2ccc(CN3Cc4ccccc4C3)c(F)c2F)cc1` [Compound 27, 4-((2,3-Difluoro-4-(isoindolin-2-ylmethyl)phenoxy)methyl)-N,N-dimethyl-benzamide], which IC50 is on record?
**A.** The IC50 was 351 to 1500 nM.

**Q.** How did the IC50 turn out when `CC(=O)c1cc(CN2Cc3ccccc3C2)ccc1OCc1ccc(C(=O)N(C)C)cc1` [Compound 42, 4-((2-Acetyl-4-(isoindolin-2-ylmethyl)phenoxy)methyl)-N,N-dimethylbenzamide] was run?
**A.** The IC50 was less than 150 nM.

**Q.** `CS(=N)(=O)c1ccc(COc2ccc(CN3Cc4ccccc4C3)c3cccnc23)cc1` (stereo not drawn) [Compound 44, Imino(4-(((5-(isoindolin-2-ylmethyl)quinolin-8-yl)oxy)methyl)phenyl)(methyl)-λ^6-sulfanone] was tested. Which IC50 did it give?
**A.** Its IC50 is less than 150 nM.

**Q.** How did the IC50 turn out when `COC(=O)c1cc(CN2Cc3ccccc3C2)ccc1OCc1ccc(C(=O)N(C)C)cc1` [Compound 7, Methyl 2-((4-(dimethylcarbamoyl)benzyl)oxy)-5-(isoindolin-2-ylmethyl)-benzoate] was run?
**A.** The IC50 was 151 to 350 nM.

**Q.** With `CN(C)C(=O)c1ccc(COc2ccc(CN3Cc4ccccc4C3)cc2OC(F)(F)F)cc1` [Compound 29, 4-((4-(Isoindolin-2-ylmethyl)-2-(trifluoromethoxy)phenoxy)methyl)-N,N-dimethylbenzamide] as the molecule, how does the IC50 read?
**A.** The IC50 was 351 to 1500 nM.

**Q.** Which IC50 does the source give for `COC(=O)c1ccc(COc2ccc(CN3Cc4ccccc4C3)cc2[N+](=O)[O-])cc1` [Compound 39, Methyl 4-((4-(isoindolin-2-ylmethyl)-2-nitrophenoxy)methyl)benzoate] here?
**A.** Its IC50 is 351 to 1500 nM.

**Q.** Which IC50 does the source give for `CS(=O)(=O)N1CCC(COc2ccc(CN3Cc4ccccc4C3)c3cn[nH]c23)CC1` [Compound 38, 4-(Isoindolin-2-ylmethyl)-7-((1-(methylsulfonyl)piperidin-4-yl)methoxy)-1H-indazole] here?
**A.** The IC50 was less than 150 nM.

**Q.** With `CS(=O)(=O)N1CCC(COc2ccc(CN3Cc4ccccc4C3)c3ncoc23)CC1` [Compound 46, 4-(Isoindolin-2-ylmethyl)-7-((1-(methylsulfonyl)piperidin-4-yl)methoxy)-benzo[d]oxazole] as the molecule, how does the IC50 read?
**A.** Its IC50 is 351 to 1500 nM.

**Q.** With `COc1cc(CN2Cc3ccc(SC)cc3C2)ccc1OCc1ccc(C(=O)N(C)C)cc1` [Compound 34, 4-((2-Methoxy-4-((5-(methylthio)isoindolin-2-yl)methyl)phenoxy)methyl)-N,N-dimethylbenzamide] as the molecule, how does the IC50 read?
**A.** Its IC50 is less than 150 nM.

**Q.** With `COC(=O)/C=C/c1ccc(COc2ccc(CN3Cc4ccccc4C3)cc2OC)cc1` [Compound 9, Methyl (E)-3-(4-((4-(isoindolin-2-ylmethyl)-2-methoxyphenoxy)methyl)phenyl)acrylate] as the molecule, how does the IC50 read?
**A.** Its IC50 is 351 to 1500 nM.

**Q.** Which IC50 does the source give for `COc1cc(CN2Cc3ccccc3C2)cc(F)c1OCc1ccc(C(=O)N(C)C)cc1` [Compound 28, 4-((2-Fluoro-4-(isoindolin-2-ylmethyl)-6-methoxyphenoxy)methyl)-N,N-di-methylbenzamide] here?
**A.** Its IC50 is 351 to 1500 nM.

**Q.** For `COC(=O)c1ccc(COc2ccc(CN3Cc4ccccc4C3)cc2OC)cc1` [Compound 1, Methyl 4-((4-(isoindolin-2-ylmethyl)-2-methoxyphenoxy)methyl) benzoate], which IC50 is on record?
**A.** Its IC50 is 351 to 1500 nM.

**Q.** `COC(=O)c1ccc(COc2ccc(CN3Cc4ccccc4C3)cc2)cc1` [Compound 2, Methyl 4-((4-(isoindolin-2-ylmethyl)phenoxy)methyl)benzoate] was tested. Which IC50 did it give?
**A.** Its IC50 is 351 to 1500 nM.

**Q.** With `COCc1cc(CN2Cc3ccccc3C2)ccc1OCc1ccc(S(C)(=O)=O)cc1` [Compound 18, 2-(3-(Methoxymethyl)-4-((4-(methylsulfonyl)benzyl)oxy)benzyl)isoindoline] as the molecule, how does the IC50 read?
**A.** The IC50 was 151 to 350 nM.

**Q.** With `CN(C)C(=O)c1ccc(COc2ccc(CN3Cc4ccccc4C3)cc2C#N)cc1` [Compound 6, 4-((2-Cyano-4-(isoindolin-2-ylmethyl)phenoxy)methyl)-N,N-dimethylbenzamide] as the molecule, how does the IC50 read?
**A.** Its IC50 is less than 150 nM.

**Q.** `COc1c(OCC2CCN(C(=O)NC(C)C)CC2)ccc(CN2Cc3ccccc3C2)c1[N+](=O)[O-]` [Compound 23, 4-((4-(Isoindolin-2-ylmethyl)-2-methoxy-3-nitrophenoxy)methyl)-N-isopropyl-piperidine-1-carboxamide] was tested. Which IC50 did it give?
**A.** Its IC50 is 351 to 1500 nM.

**Q.** How did the IC50 turn out when `CC(=O)c1cc(CN2Cc3ccccc3C2)ccc1OCC1CCN(S(C)(=O)=O)CC1` [Compound 48, 1-(5-(Isoindolin-2-ylmethyl)-2-((1-(methylsulfonyl)piperidin-4-yl)methoxy)-phenyl)ethan-1-one] was run?
**A.** The IC50 was less than 150 nM.

**Q.** Which IC50 does the source give for `CN(C)C(=O)c1ccc(COc2ccc(CN3Cc4ccccc4C3)cc2OCC(N)=O)cc1` [Compound 14, 4-((2-(2-Amino-2-oxoethoxy)-4-(isoindolin-2-ylmethyl)phenoxy)methyl)-N,N-dimethylbenzamide] here?
**A.** Its IC50 is less than 150 nM.

**Q.** `COc1cc(CN2Cc3ccccc3C2)ccc1OCc1ccc(C(=O)N(C)C)cc1` [Compound 3, 4-((4-(Isoindolin-2-ylmethyl)-2-methoxyphenoxy)methyl)-N,N-dimethyl-benzamide] was tested. Which IC50 did it give?
**A.** Its IC50 is less than 150 nM.

**Q.** For `CS(=N)(=O)c1ccc(COc2ccc(CN3Cc4ccccc4C3)c3ocnc23)cc1` (stereo not drawn) [Compound 45, Imino(4-(((7-(isoindolin-2-ylmethyl)benzo[d]oxazol-4-yl)oxy)methyl)phenyl)-(methyl)-λ^6-sulfanone], which IC50 is on record?
**A.** The IC50 was 351 to 1500 nM.

**Q.** With `CS(=N)(=O)c1ccc(COc2ccc(CN3Cc4ccccc4C3)cc2C#N)cc1` (stereo not drawn) [Compound 33, 5-(isoindolin-2-ylmethyl)-2-((4-(S-methylsulfonimidoyl)benzyl)oxy)benzonitrile] as the molecule, how does the IC50 read?
**A.** Its IC50 is less than 150 nM.

**Q.** `CN(C)C(=O)c1ccc(COc2ccc(CN3Cc4ccccc4C3)cc2NS(C)(=O)=O)cc1` [Compound 53, 4-((4-(Isoindolin-2-ylmethyl)-2-(methylsulfonamido)phenoxy)methyl)-N,N-dimethylbenzamide] was tested. Which IC50 did it give?
**A.** The IC50 was 351 to 1500 nM.

**Q.** With `CS(=O)(=O)N1CCC(COc2ccc(CN3Cc4ccccc4C3)cc2C(F)(F)F)CC1` [Compound 56] as the molecule, how does the IC50 read?
**A.** The IC50 was 151 to 350 nM.
